Source: ChEMBL document CHEMBL5113432, “Discovery of novel indole and indoline derivatives against Candida albicans as potent antifungal agents” (Bioorg Med Chem Lett, 2022)
Activity calls are given as the source filed them. The rule behind the calls is not given here.

Legend:
Candida albicans [1] = test: Antifungal activity against fluconazole-resistant Candida albicans ATCC10231FR assessed as inhibition of fungal growth by microdilution method; assay type: functional, organism-based
Candida albicans [2] = test: Antifungal activity against fluconazole-sensitive Candida albicans SC5314 assessed as inhibition of fungal growth by microdilution method; assay type: functional, organism-based
Candida albicans [3] = test: Antifungal activity against fluconazole-resistant Candida albicans SC5314FR assessed as inhibition of fungal growth by microdilution method; assay type: functional, organism-based
Candida albicans [4] = test: Antifungal activity against fluconazole-sensitive Candida albicans ATCC10231 assessed as inhibition of fungal growth by microdilution method; assay type: functional, organism-based
Candida albicans [5] = test: Antifungal activity against clinical strain Candida albicans CA4574 assessed as inhibition of fungal growth by microdilution method; assay type: functional, organism-based
Candida albicans [6] = test: Antifungal activity against clinical strain Candida albicans CA23 assessed as inhibition of fungal growth by microdilution method; assay type: functional, organism-based
Candida albicans [7] = test: Antifungal activity against clinical strain Candida albicans CA187 assessed as inhibition of fungal growth by microdilution method; assay type: functional, organism-based
Candida albicans [8] = test: Antifungal activity against clinical strain Candida albicans CA808 assessed as inhibition of fungal growth by microdilution method; assay type: functional, organism-based
Candida albicans [9] = test: Antifungal activity against Candida albicans assessed as inhibition of fungal growth at 18 to 72 ug/ml and measured upto 96 hrs by microdilution method; assay type: functional, organism-based; details: dose 18-72 µg/ml, DDE = dose-dependent effect
Candida albicans [10] = test: Antifungal activity against Candida albicans assessed as inhibition of biofilm formation at 18 to 72 ug/ml incubated for 24 hrs by crystal violet staining based method; assay type: functional, organism-based; details: dose 18-72 µg/ml
Candida albicans [11] = test: Antifungal activity against Candida albicans assessed as inhibition of hyphae formation in Spider medium at 18 to 72 ug/ml and measured upto 8 hrs by scanning electron microscopy; assay type: functional, organism-based; details: dose 18-72 µg/ml, DDE = dose-dependent effect
Candida albicans [12] = test: Antifungal activity against Candida albicans assessed as decrease in filamentous hyphae length in Spider medium at 36 to 72 ug/ml by scanning electron microscopy; assay type: functional, organism-based; details: dose 36-72 µg/ml
Candida albicans [13] = test: Antifungal activity against Candida albicans assessed as downregulation of RAS1 by RT-PCR analysis; assay type: functional, organism-based
Candida albicans [14] = test: Antifungal activity against Candida albicans assessed as downregulation of CYR1 by RT-PCR analysis; assay type: functional, organism-based
Candida albicans [15] = test: Antifungal activity against Candida albicans assessed as downregulation of EFG1 by RT-PCR analysis; assay type: functional, organism-based
Candida albicans [16] = test: Antifungal activity against Candida albicans assessed as downregulation of ECE1 by RT-PCR analysis; assay type: functional, organism-based
Candida albicans [17] = test: Antifungal activity against Candida albicans assessed as downregulation of ALS3 by RT-PCR analysis; assay type: functional, organism-based
Candida albicans [18] = test: Antifungal activity against Candida albicans assessed as downregulation of HWP1 by RT-PCR analysis; assay type: functional, organism-based
[19] = Cytotoxicity against human 16HBE14o- assessed as inhibition of cell growth incubated for 24 hrs; assay type: toxicity, cell-based; details: 16HBE14o- cells
Candida albicans [20] = test: Antifungal activity against Candida albicans assessed as inhibition of fungal growth at 18 to 72 ug/ml and measured 4 to 96 hrs by microdilution method; assay type: functional, organism-based; details: dose 18-72 µg/ml, time 4-96 hrs, TDE = time-dependent effect
Candida albicans [21] = test: Antifungal activity against Candida albicans assessed as inhibition of hyphae formation in Spider medium at 18 to 72 ug/ml and measured for 4 to 8 hrs by scanning electron microscopy; assay type: functional, organism-based; details: dose 18-72 µg/ml, time 4-8 hrs, TDE = time-dependent effect

SMILES: CCN(CC)c1ccc(/C=N/CCNC(=O)CCn2ccc3ccccc32)c(O)c1
- IC50 (Candida albicans [1]): 21 µg/mL
- IC50 (Candida albicans [2]): 22 µg/mL
- IC50 (Candida albicans [3]): 75 µg/mL
- IC50 (Candida albicans [4]): 19 µg/mL
- IC50 (Candida albicans [5]): 74 µg/mL
- IC50 (Candida albicans [6]): 20 µg/mL
- IC50 (Candida albicans [7]): 39 µg/mL
- IC50 (Candida albicans [8]): 78 µg/mL
- inhibition (Candida albicans [9]): Dde
- inhibition (Candida albicans [10]): Active
- inhibition (Candida albicans [11]): Dde
- Activity (Candida albicans [12]): Active
- Activity (Candida albicans [13]): Active
- Activity (Candida albicans [14]): Active
- Activity (Candida albicans [15]): Active
- Activity (Candida albicans [16]): Active
- Activity (Candida albicans [17]): Active
- Activity (Candida albicans [18]): Active
- CC50 at 24 h [19]: > 200 µg/mL
- inhibition (Candida albicans [20]): Tde
- inhibition (Candida albicans [21]): Tde

SMILES: O=C(CCn1ccc2ccccc21)NCC/N=C/c1ccc(F)c(C(F)(F)F)c1
- IC50 (Candida albicans [1]): > 200 µg/mL

SMILES: O=C(CCn1ccc2ccccc21)NCC/N=C/c1ccc(OCc2ccccc2)cc1O
- IC50 (Candida albicans [1]): 18 µg/mL

SMILES: O=C(CCn1ccc2ccccc21)NCCNS(=O)(=O)c1ccc(OCc2ccccc2)cc1O
- IC50 (Candida albicans [1]): > 200 µg/mL

SMILES: O=C(CCn1ccc2ccccc21)NCC/N=C/c1ccc(OC(F)(F)F)cc1
- IC50 (Candida albicans [1]): 29 µg/mL

SMILES: O=C(CCn1ccc2ccccc21)NCC/N=C/c1ccc(Cl)c(C(F)(F)F)c1
- IC50 (Candida albicans [1]): 24 µg/mL

SMILES: O=C(CCn1ccc2ccccc21)NCCNS(=O)(=O)c1ccc(Br)cc1
- IC50 (Candida albicans [1]): > 200 µg/mL

SMILES: COc1cc(O)c(/C=N/CCNC(=O)CCn2ccc3ccccc32)c(OC)c1
- IC50 (Candida albicans [1]): 86 µg/mL

SMILES: O=C(CCn1ccc2ccccc21)NCCNS(=O)(=O)c1cc(Cl)c(F)cc1F
- IC50 (Candida albicans [1]): > 200 µg/mL

SMILES: CCN(CC)c1ccc(S(=O)(=O)NCCNC(=O)CCn2ccc3ccccc32)c(O)c1
- IC50 (Candida albicans [1]): > 200 µg/mL

SMILES: OC(Cn1cncn1)(Cn1cncn1)c1ccc(F)cc1F [FLUCONAZOLE]
- IC50 (Candida albicans [1]): > 200 µg/mL
- IC50 (Candida albicans [2]): 1.3 µg/mL
- IC50 (Candida albicans [3]): > 200 µg/mL
- IC50 (Candida albicans [4]): 10 µg/mL
- IC50 (Candida albicans [5]): 1.2 µg/mL
- IC50 (Candida albicans [6]): > 200 µg/mL
- IC50 (Candida albicans [7]): > 200 µg/mL
- IC50 (Candida albicans [8]): > 200 µg/mL

SMILES: Cc1ccc(S(=O)(=O)NCCNC(=O)CCn2ccc3ccccc32)cc1
- IC50 (Candida albicans [1]): > 200 µg/mL

SMILES: O=C(CCn1ccc2ccccc21)NCCNS(=O)(=O)c1cc([N+](=O)[O-])ccc1O
- IC50 (Candida albicans [1]): > 200 µg/mL

SMILES: O=C(CCn1ccc2ccccc21)NCC/N=C/c1ccc(Br)cc1
- IC50 (Candida albicans [1]): > 200 µg/mL

SMILES: O=C(CCn1ccc2ccccc21)NCCNS(=O)(=O)c1ccc(F)c(C(F)(F)F)c1
- IC50 (Candida albicans [1]): > 200 µg/mL

SMILES: COc1ccc(O)c(/C=N/CCNC(=O)CCn2ccc3ccccc32)c1
- IC50 (Candida albicans [1]): > 200 µg/mL

SMILES: O=C(CCn1ccc2ccccc21)NCCNS(=O)(=O)c1cc(Cl)cc(Br)c1O
- IC50 (Candida albicans [1]): > 200 µg/mL

SMILES: O=C(CCn1ccc2ccccc21)NCCNS(=O)(=O)c1ccc(OC(F)(F)F)cc1
- IC50 (Candida albicans [1]): > 200 µg/mL

SMILES: O=C(CCn1ccc2ccccc21)NCC/N=C/c1cc(Cl)c(F)cc1F
- IC50 (Candida albicans [1]): > 200 µg/mL

SMILES: O=C(CCn1ccc2ccccc21)NCCNS(=O)(=O)c1cc(Br)ccc1O
- IC50 (Candida albicans [1]): > 200 µg/mL
